Data taken from patent US8178506B2, “Oligomeric compounds and compositions for use in modulation of small non-coding RNAs” (Regulus Therapeutics Inc., priority 2003, dated 2012).
In the oligonucleotide strings, read from the 5' end, every base follows the letter of its sugar. An asterisk marks phosphorothioate; unmarked linkages are phosphodiester. Other units and linkages are bracketed, terminal groups are in braces. A string of capitals states the bases alone. e = 2'-O-(2-methoxyethyl) (MOE); [5mC] = 5-methylcytosine

Experiments:
HSL = HSL mRNA expression in adipocytes (real-time PCR); type: cell-based, human; conditions: for HSL (mRNA expression): adipocytes, 250 nM oligomeric compound, day nine post-transfection, relative to control (1.0), Table 16
HuVECs = assay: Endothelial tube formation assay in HuVECs; conditions: 75 nM oligomeric compound
PPARγ = PPARγ mRNA expression in adipocytes (real-time PCR); type: cell-based, human; conditions: for PPAR gamma (mRNA expression): adipocytes, 250 nM oligomeric compound, day nine post-transfection, relative to control (1.0), Table 16
leptin = assay: Leptin secretion by adipocytes (ELISA); type: cell-based, human; conditions: adipocytes, 250 nM oligomeric compound, day nine post-transfection, relative to control (1.0); Table 16
Procedure: Leptin secretion into the medium in which adipocytes are cultured is measured by protein ELISA. On day nine post-transfection, 96-well plates are coated with a monoclonal antibody to human leptin (R&D Systems, Minneapolis, Minn.) and left at 4° C. overnight. The plates are blocked with bovine serum albumin (BSA), and a dilution of the treated adipoctye medium is incubated in the plate at room temperature for approximately 2 hours. After washing to remove unbound components, a second monoclonal antibody to human leptin (conjugated with biotin) is added. The plate is then incubated with strepavidin-conjugated horse radish peroxidase (HRP) and enzyme levels are determined by incubation with 3, 3′,5,5′-tetramethlybenzidine, which turns blue when cleaved by HRP. The OD450 is read for each well, where the dye absorbance is proportional to the leptin concentration in the cell lysate.
Leptin is also a marker for differentiated adipocytes. In the adipocyte assay, leptin secretion into the media above the differentiated adipocytes was measured by protein ELISA. Cell growth, transfection and differentiation procedures were carried out as described for the Triglyceride accumulation assay (see below). On day nine post-transfection, 96-well plates were coated with a monoclonal antibody to human leptin (R&D Systems, Minneapolis, Minn.) and left at 4° C. overnight. The plates were blocked with bovine serum albumin (BSA), and a dilution of the media was incubated in the plate at RT for 2 hours. After washing to remove unbound components, a second monoclonal antibody to human leptin (conjugated with biotin) was added. The plate was then incubated with strepavidin-conjugated horseradish peroxidase (HRP) and enzyme levels are determined by incubation with 3, 3′, 5,5′-Tetramethlybenzidine, which turns blue when cleaved by HRP. The OD450 was read for each well, where the dye absorbance is proportional to the leptin concentration in the cell lysate. Results are expressed as a percent±standard deviation relative to transfectant-only controls.

preadipocytes = assay: Caspase assay in preadipocytes; type: cell-based, human; conditions: untreated control set equal to 1.0
From the text: The effect of oligomeric compounds of the present invention targeting miRNAs was examined in preadipocytes (Zen-Bio, Inc., Research Triangle Park, N.C.) using the fluorometric caspase assay previously described in Example 11.

Glut4 = Glut4 mRNA expression in adipocytes (real-time PCR); type: cell-based, human; conditions: for Glut4 (mRNA expression): adipocytes, 250 nM oligomeric compound, day nine post-transfection, relative to control (1.0), Table 16
aP2 = aP2 mRNA expression in adipocytes (real-time PCR); type: cell-based, human; conditions: for AP2 (mRNA expression): adipocytes, 250 nM oligomeric compound, day nine post-transfection, relative to control (1.0), Table 16
adipocytes = assay: Triglyceride accumulation assay in adipocytes; type: cell-based, human
mir-21 pri-miRNA = mir-21 pri-miRNA expression in HeLa cells (real-time RT-PCR); type: cell-based, human; conditions: HeLa cells, 100 nM, real-time RT-PCR
mir-21 miRNA = assay: pGL3-mir-21 sensor luciferase assay in HeLa cells; type: cell-based, human; conditions: Table 50, pGL3-mir-21 sensor-expressing HeLa cells, normalized to pRL-CMV
From the text: In order to assess the ability of miRNAs to bind predicted miRNA binding sites and regulate the expression of the luciferase reporter, in some embodiments, expression systems based on the pGL3-Control (Promega Corp., Madison Wis.) reporter vector and comprising either a mir-15a, mir-21, or a mir-23b miRNA binding site were developed and used in transient transfections of HeLa cells to determine whether the endogenous mir-15a, mir-21, or mir-23b miRNAs, respectively, could repress luciferase reporter gene expression.
The pGL3-mir-21 sensor plasmid was created by cloning the sequence ([…]; SEQ ID NO: 335), representing a sequence complementary to the mir-21 miRNA, into the Xba site of the pGL3-Control plasmid, placing the potential miRNA-binding site in the 3′UTR of the luciferase reporter. This reporter plasmid was used to transfect HeLa cells and it was observed that the endogenous mir-21 miRNA was able to inhibit luciferase expression from the pGL3-mir-21 sensor plasmid. Thus, to further evaluate the ability of the mir-21 miRNA to bind this target site encoded by the pGL3-mir-21 sensor plasmid, and to assess the ability of oligomeric compounds to interfere with mir-21-mediated silencing, pGL3-mir-21 sensor-expressing HeLa cells were treated with varying concentrations (10 nM or 50 nM) of the following oligomeric compounds: ISIS Number 327917 (SEQ ID NO: 335), a phosphorothioate uniform 2′-MOE oligomeric compound; ISIS Number 338697 ([…]; herein incorporated as SEQ ID NO: 524), a uniform 2′-MOE oligomeric compound targeting the mir-21 pri-miRNA molecule; and ISIS Number 328415 (SEQ ID NO: 524), a 2′-MOE 5-10-5 gapmer oligomeric compound targeting the mir-21 pri-miRNA. The uniform 2′-MOE phosphorothioate oligomeric compound ISIS Number 327901 (SEQ ID NO: 319) targeting an unrelated miRNA (mir-143) was used as a negative control. The data are the average of three trials and are presented in Table 44 as percent untreated control (luciferase plasmid only, not treated with oligomeric compound) luciferase expression, normalized to pRL-CMV levels.
In one embodiment, the oligomeric compounds ISIS Number 327917 (SEQ ID NO: 335), the phosphorothioate uniform 2′-MOE targeting mature mir-21; ISIS Number 358768 (SEQ ID NO: 918), the uniform 2′-MOE targeting the mir-21 pri-miRNA which stimulated the largest increase in pri-miRNA expression levels by real time quantitative RT-PCR; and ISIS Number 345382 (SEQ ID NO: 335), the 5-10-7 phosphorothioate 2′-MOE gapmer targeting mature mir-21 were selected for dose response studies in HeLa cells using the luciferase reporter system described in Example 27. ISIS Number 342683 (SEQ ID NO: 790), representing the scrambled nucleotide sequence of an unrelated PTP1B antisense oligonucleotide, was used as a negative control. HeLa cells expressing the pGL3-mir-21 sensor plasmid (described in Example 27) were treated with 1.9, 5.5, 16.7, and 50 nM of these oligomeric compounds, to assess the ability of oligomeric compounds to interfere with endogenous mir-21-mediated silencing of the pGL3-mir-21 sensor plasmid. The data are presented in Table 50 as percent untreated control (luciferase plasmid only, not treated with oligomeric compound) luciferase expression, normalized to pRL-CMV levels.

T47D cells = assay: Caspase-3 activity assay (apoptosis) in T47D cells; conditions: T47D cells, 48 hours; for Fold Increase over UTC (caspase-3 activity, apoptosis): 200 nM oligomeric compound
[1] = tested on: BJ, B16-F10, T47D, T47Dp53 and HeLa cells; assay: Cell cycle assay (propidium iodide flow cytometry), cell line panel; type: cell-based; conditions: 150 nM oligomeric compound, 4.5 μg/ml LIPOFECTIN, after 72 hours, propidium iodide flow cytometry
[2] = adipocytes, 250 nM oligomeric compound, relative to control (1.0), Table 16
[3] = differentiating adipocytes transfected with oligomeric compound

| Substance | HSL (mRNA expression) (HSL) | % Activity Relative to UTC (tube formation) (HuVECs; Table 58) | PPAR gamma (mRNA expression) (PPARγ) | Leptin (secretion) (leptin) | Fold Increase over UTC (caspase activity) (preadipocytes) | Glut4 (mRNA expression) (Glut4) | AP2 (mRNA expression) (aP2) | TG (triglyceride accumulation) (adipocytes; [2]) | other results |
| --- | --- | --- | --- | --- | --- | --- | --- | --- | --- |
| 327926 (antisense eA*e[5mC]*eT*eA*eT*eG*e[5mC]*eA*eA*e[5mC]*e[5mC]*eT*eA*e[5mC]*eT*eA*e[5mC]*e[5mC]*eT*e[5mC]*eT) [compound 327926] | 0.82 | 96.3% | 0.93 | 1.47 | 1.8 fold over UTC | 1.10 | 0.85 | 1.06 |  |
| 327930 (antisense eA*e[5mC]*eT*eA*eT*eA*e[5mC]*eA*eA*e[5mC]*e[5mC]*eT*e[5mC]*e[5mC]*eT*eA*e[5mC]*e[5mC]*eT*e[5mC]*eA) [compound 327930] | 0.89 | 88.9% | 0.98 | 0.95 | 1.4 fold over UTC | 1.01 | 0.86 | 0.97 |  |
| 327938 (antisense eA*eA*e[5mC]*eA*eA*eT*eA*e[5mC]*eA*eA*e[5mC]*eT*eT*eA*e[5mC]*eT*eA*e[5mC]*e[5mC]*eT*e[5mC]*eA) [compound 327938] | 0.85 | 96.3% | 0.90 | 1.35 | 1.0 fold over UTC | 0.80 | 0.86 | 1.05 |  |
| 327942 (antisense e[5mC]*e[5mC]*eA*eT*e[5mC]*eT*eT*eT*eA*e[5mC]*e[5mC]*eA*eG*eA*e[5mC]*eA*eG*eT*eG*eT*eT) [compound 327942] | 0.79 | 74.1% | 0.87 | 2.03 | 1.0 fold over UTC | 0.66 | 0.82 | 0.85 |  |
| 327955 (antisense eG*e[5mC]*e[5mC]*e[5mC]*eT*eT*eT*e[5mC]*eA*eT*e[5mC]*eA*eT*eT*eG*e[5mC]*eA*e[5mC]*eT*eG) [compound 327955] | 0.82 |  | 0.92 | 1.22 | 4.3 fold over UTC | 0.45 | 0.74 | 0.81 | % Activity Relative to UTC (tube formation) (HuVECs; Table 59): 46.7% |
| 358768 (eA*eG*eG*eT*eG*eG*eT*eA*e[5mC]*eA*eG*e[5mC]*e[5mC]*eA*eT*eG*eG*eA*eG*eA) [compound 358768] |  |  |  |  |  |  |  |  | mir-21 pri-miRNA expression % UTC (mir-21 pri-miRNA): 987 % UTC; luciferase expression % UTC (mir-21 miRNA; 1.9 nM): 103 % UTC; luciferase expression % UTC (mir-21 miRNA; 5.5 nM): 163 % UTC; luciferase expression % UTC (mir-21 miRNA; 16.7 nM): 146 % UTC; luciferase expression % UTC (mir-21 miRNA; 50 nM): 118 % UTC |
| NNNNNNNNNNNNNNNNNNNN [ISIS 29848, reference compound] |  |  |  |  | 1.2 fold over UTC |  |  |  | HSL mRNA (HSL; [3]): 84 percentage of untreated control (UTC); PPAR gamma mRNA (PPARγ; [3]): 100 percentage of untreated control (UTC); Fold Increase over UTC (caspase-3 activity, apoptosis) (T47D cells; experiment of Table 10): 3.0 fold; Fold Increase over UTC (caspase-3 activity, apoptosis) (T47D cells; experiment of Table 11): 3.2 fold; Fold Increase over UTC (caspase-3 activity, apoptosis) (T47D cells; experiment of Table 12): 3.5 fold; Fold Increase over UTC (caspase activity) (T47D cells; 200 nM, relative to untreated control): 3.5; G1 (percentage of cells in phase of the cell cycle) [1]: 57.8%; G2/M (percentage of cells in phase of the cell cycle) [1]: 15.6%; S (percentage of cells in phase of the cell cycle) [1]: 26.5%; SubG1 (percentage of cells in phase of the cell cycle) [1]: 9.6%; aneuploid (percentage of cells) [1]: 12%; GLUT4 mRNA (Glut4; [3]): 96 percentage of untreated control (UTC); AP2 mRNA (aP2; [3]): 89 percentage of untreated control (UTC); TG (triglyceride accumulation) (adipocytes; [3]): 89 percentage of untreated control (UTC) |
